# Experimental data reported in patent US20240317744A1, “Bicyclic Ureas As Kinase Inhibitors” (Incyte Corporation, priority 2023, published 2024).
# Columns and labels:
# [1] = biological target: T1, pseudo-kinase domain (JH2, amino-acids 536-812) of human V617F mutant JAK2 (Homo sapiens, UniProt O60674, F794H/V617F/W659A/W777A); test: JAK2 LanthaScreen JH2-V617F Binding Assay; settings: JAK2 JH2-V617F 0.26 nM, 50 nM tracer, 1 hour at 25° C.; read-out: JH2 BIND V617F
# T1 construct: pseudo-kinase domain (JH2, amino-acids 536-812 with 3 surface mutations W659A, W777A, F794H); His (C); purchased BPS Bioscience 79498; host or cells: baculovirus expression system
# In short: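 Serially diluted compounds are mixed with 0.26 nM protein, 50 nM fluorescent JAK2-JH2 tracer and 0.25 nM terbium-labelled streptavidin, then incubated 1 h at 25° C. LanthaScreen signal is read, and IC50 is fitted.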
# [2] = biological target: T2, catalytic domain (JH1, amino acids 826-1132) of human JAK2 (Homo sapiens, UniProt O60674); test: JAK2 LanthaScreen JH1 Binding Assay; settings: JAK2 JH1 1.5 nM, 50 nM tracer, 2 hours at 25° C.; read-out: JH1 BIND
# T2 construct: catalytic domain (JH1, amino acids 826-1132) of human JAK2; FLAG (N); biotin (biotinylated); purchased Carna Biosciences 08-445-20N; host or cells: baculovirus expression system
# Protocol: Example A. JAK2 LanthaScreen JH1 Binding Assay
# JAK2 JH1 binding assay utilizes catalytic domain (JH1, amino acids 826-1132) of human JAK2 expressed as N-terminal FLAG-tagged, biotinylated protein in a baculovirus expression system (Carna Biosciences, Product #08-445-20N). The assay was conducted in black 384-well polystyrene plates in a final reaction volume of 20 μL. JAK2 JH1 (1.5 nM) was incubated with compounds (100 nL serially diluted in DMSO) in the presence of 50 nM fluorescent JAK2-JH1 tracer and 0.5 nM Streptavidin-Tb cryptate (Cisbio Part #610SATLB) in assay buffer (50 mM Tris, pH=7.5, 10 mM MgCl2, 0.01% Brij-35, 0.1% BSA, 1 mM EGTA, 5% Glycerol and 5 mM DTT). Non-specific binding was accessed in the presence of 2 mM ATP. After incubation for 2 hours at 25° C., LanthaScreen signals were read on a PHERAstar FS plate reader (BMG LABTECH). Data was analyzed with IDBS XLfit and GraphPad Prism 5.0 software using a four parameter dose response curve to determine IC50 for each compound.
# [3] = biological target: catalytic domain (JH1, amino acids 808-1132) of human JAK2 (Homo sapiens, UniProt O60674); test: JAK2 HTRF Enzyme Activity Assay; type: biochemical; settings: ATP 30 µM, 60 minutes at 25° C.; read-out: V617F ENZ 30 UM
# [4] = biological target: T3, pseudo-kinase domain (JH2, amino-acids 536-812) of human Wild Type JAK2 (Homo sapiens, UniProt O60674, F794H/W659A/W777A); test: JAK2 LanthaScreen JH2-WT Binding Assay; settings: JAK2 JH2-WT 0.145 nM, 50 nM tracer, 1 hour at 25° C.; read-out: JH2 BIND WT
# T3 construct: pseudo-kinase domain (JH2, amino-acids 536-812 with 3 surface mutations W659A, W777A, F794H); His (C); purchased BPS Bioscience 79463; host or cells: baculovirus expression system
# Protocol: Example B. JAK2 LanthaScreen JH2-WT Binding Assay
# JAK2 JH2-WT binding assay utilizes pseudo-kinase domain (JH2, amino-acids 536-812 with 3 surface mutations W659A, W777A, F794H) of human Wild Type JAK2 expressed as C-terminal His-Avi-tagged, biotinylated protein in a baculovirus expression system (BPS Bioscience, Catalog #79463). The assay was conducted in black 384-well polystyrene plates in a final reaction volume of 20 μL. JAK2 JH2-WT (0.145 nM) was incubated with compounds (100 nL serially diluted in DMSO) in the presence of 50 nM Fluorescent JAK2-JH2 Tracer (MedChem Express Catalog #HY-102055) and 0.25 nM Streptavidin-Tb cryptate (Cisbio Part #610SATLB) in assay buffer (50 mM Tris, pH=7.5, 10 mM MgCl2, 0.01% Brij-35, 0.1% BSA, 1 mM EGTA, 5% Glycerol and 5 mM DTT). Non-specific binding was accessed in the presence of 2 mM ATP. After incubation for 1 hour at 25° C., LanthaScreen signals were read on a PHERAstar FS plate reader (BMG LABTECH). Data was analyzed with IDBS XLfit and GraphPad Prism 5.0 software using a four parameter dose response curve to determine IC50 for each compound.
# T3 sequence (O60674 536-812 W659A/W777A/F794H): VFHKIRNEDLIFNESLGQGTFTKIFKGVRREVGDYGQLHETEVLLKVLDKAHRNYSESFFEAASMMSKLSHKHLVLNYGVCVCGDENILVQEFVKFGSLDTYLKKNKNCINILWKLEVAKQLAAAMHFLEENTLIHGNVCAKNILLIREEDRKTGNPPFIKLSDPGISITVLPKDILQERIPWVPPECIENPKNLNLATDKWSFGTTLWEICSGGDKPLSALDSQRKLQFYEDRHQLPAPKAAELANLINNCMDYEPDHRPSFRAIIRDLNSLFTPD
# T1 sequence (O60674 536-812 V617F/W659A/W777A/F794H): as the sequence (O60674 536-812 W659A/W777A/F794H) above, with V82F counted along it
# Chain of catalytic domain (JH1, amino acids 808-1132) of human JAK2 (O60674 808-1132 limits assumed): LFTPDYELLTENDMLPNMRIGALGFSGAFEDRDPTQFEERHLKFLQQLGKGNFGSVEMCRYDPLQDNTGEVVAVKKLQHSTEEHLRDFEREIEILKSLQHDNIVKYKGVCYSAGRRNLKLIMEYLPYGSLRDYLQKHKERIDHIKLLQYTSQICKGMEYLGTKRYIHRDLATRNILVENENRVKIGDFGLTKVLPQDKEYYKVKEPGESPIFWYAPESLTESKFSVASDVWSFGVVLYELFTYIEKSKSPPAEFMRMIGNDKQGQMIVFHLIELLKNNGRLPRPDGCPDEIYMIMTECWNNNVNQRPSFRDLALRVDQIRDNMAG
# T2 sequence (O60674 826-1132): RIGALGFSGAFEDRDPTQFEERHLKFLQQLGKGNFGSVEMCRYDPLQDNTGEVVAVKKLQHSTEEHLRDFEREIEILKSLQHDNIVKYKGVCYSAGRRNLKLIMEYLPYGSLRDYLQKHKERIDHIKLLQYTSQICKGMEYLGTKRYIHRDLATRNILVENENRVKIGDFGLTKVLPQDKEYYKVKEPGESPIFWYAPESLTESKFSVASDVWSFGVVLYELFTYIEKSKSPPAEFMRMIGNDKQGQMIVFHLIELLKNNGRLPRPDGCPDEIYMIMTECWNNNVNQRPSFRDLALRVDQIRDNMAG
SMILES,IC50 [1] [µM],IC50 [2] [µM],IC50 [3] [µM],IC50 [4] [µM]
"[2H]C([2H])([2H])n1c(=O)n([C@@H]2CC[C@@H](NC(=O)OC)C2)c2cc(Nc3cc(C)cc(-c4ncc(C(C)(C)O)s4)n3)ncc21 [Example 99, Methyl ((1R,3R)-3-(6-((6-(5-(2-hydroxypropan-2-yl)thiazol-2-yl)-4-methylpyridin-2-yl)amino)-3-(methyl-d3)-2-oxo-2,3-dihydro-1H-imidazo[4,5-c]pyridin-1-yl)cyclopentyl)carbamate]",≤ 0.01,> 1,> 1,≤ 0.01
"Cn1c(=O)n(C2CCOC2)c2cc(Nc3cc(NC(=O)OC4CCC4)cc(-c4cnn(C5CC5)c4)c3)ncc21 (centres unmarked) [Example 62, Cyclobutyl (3-(1-cyclopropyl-1H-pyrazol-4-yl)-5-((3-methyl-2-oxo-1-(tetrahydrofuran-3-yl)-2,3-dihydro-1H-imidazo[4,5-c]pyridin-6-yl)amino)phenyl)carbamate]",0.1 to 0.5,> 1,> 1,0.1 to 0.5
"[2H]C([2H])([2H])n1c(=O)n([C@]2([2H])CC[C@@H](NC(=O)OC)C2)c2cc(Nc3cc(-c4cnccc4C(F)(F)F)c4nc(C)c(-c5cnn(C(F)F)c5)n4n3)ncc21 (single isomer, unassigned) [Example 97]",≤ 0.01,> 1,0.5 to 1,≤ 0.01
"COC(=O)N[C@@H]1CC[C@@H](n2c(=O)n(C)c3cnc(Nc4cc(NC(=O)C5CC5)cc(-c5cnn(C)c5)c4)cc32)C1 [Example 57, Methyl ((1R,3R)-3-(6-((3-(cyclopropanecarboxamido)-5-(1-methyl-1H-pyrazol-4-yl)phenyl)amino)-3-methyl-2-oxo-2,3-dihydro-1H-imidazo[4,5-c]pyridin-1-yl)cyclopentyl)carbamate]",≤ 0.01,> 1,> 1,≤ 0.01
"COC(=O)Nc1cc(Nc2cc3c(cn2)n(C)c(=O)n3C2CC3(C2)CN(C(=O)OC)C3)cc(-c2cnn(C)c2)c1 [Example 27, Methyl 6-(6-((3-((methoxycarbonyl)amino)-5-(1-methyl-1H-pyrazol-4-yl)phenyl)amino)-3-methyl-2-oxo-2,3-dihydro-1H-imidazo[4,5-c]pyridin-1-yl)-2-azaspiro[3.3]heptane-2-carboxylate]",0.1 to 0.5,> 1,> 1,0.1 to 0.5
"COC(=O)N[C@@H]1CC[C@@H](n2c(=O)n(C)c3cnc(Nc4cc(NC(=O)OC5CCC5)cc(C5CCOCC5)c4)cc32)C1 [Example 44, Methyl ((1R,3R)-3-(6-((3-((cyclobutoxycarbonyl)amino)-5-(tetrahydro-2H-pyran-4-yl)phenyl)amino)-3-methyl-2-oxo-2,3-dihydro-1H-imidazo[4,5-c]pyridin-1-yl)cyclopentyl)carbamate]",> 1,> 1,> 1,> 1
"[2H]C([2H])([2H])n1c(=O)n([C@@H]2CC[C@@H](NC(=O)OC)C2)c2cc(Nc3cc(C(C)(C)O)c4cc(-c5cnn(C)c5)cc(C(F)(F)F)c4n3)ncc21 [Example 94, Methyl ((1R,3R)-3-(6-((4-(2-hydroxypropan-2-yl)-6-(1-methyl-1H-pyrazol-4-yl)-8-(trifluoromethyl)quinolin-2-yl)amino)-3-(methyl-d3)-2-oxo-2,3-dihydro-1H-imidazo[4,5-c]pyridin-1-yl)cyclopentyl)carbamate]",≤ 0.01,> 1,> 1,≤ 0.01
"[2H]C([2H])([2H])n1c(=O)n([C@@H]2CC[C@@H](NC(=O)OC)C2)c2cc(Nc3cc(CNC4CCCC4)cc(-c4ccc5c(c4)OCCO5)n3)ncc21 [Example 65, Methyl ((1R,3R)-3-(6-((4-((cyclopentylamino)methyl)-6-(2,3-dihydrobenzo[b][1,4]dioxin-6-yl)pyridin-2-yl)amino)-3-(methyl-d3)-2-oxo-2,3-dihydro-1H-imidazo[4,5-c]pyridin-1-yl)cyclopentyl)carbamate]",≤ 0.01,> 1,> 1,≤ 0.01
"CCOC(=O)N[C@@H]1CC[C@@H](n2c(=O)n(C)c3cnc(Nc4cc(NC(=O)OC5CCC5)cc(-c5cnn(C)c5)c4)cc32)C1 [Example 46, Ethyl ((1R,3R)-3-(6-((3-((cyclobutoxycarbonyl)amino)-5-(1-methyl-1H-pyrazol-4-yl)phenyl)amino)-3-methyl-2-oxo-2,3-dihydro-1H-imidazo[4,5-c]pyridin-1-yl)cyclopentyl)carbamate]",0.01 to 0.1,> 1,> 1,0.01 to 0.1
"COC(=O)N[C@@H]1CC[C@@H](n2c(=O)n(C)c3cnc(Nc4ccc(F)c(-c5ccc(CC#N)cc5)n4)cc32)C1 [Example 71, Methyl ((1R,3R)-3-(6-((6-(4-(cyanomethyl)phenyl)-5-fluoropyridin-2-yl)amino)-3-methyl-2-oxo-2,3-dihydro-1H-imidazo[4,5-c]pyridin-1-yl)cyclopentyl)carbamate]",≤ 0.01,> 1,> 1,≤ 0.01
"Cn1cc(-c2cc(NC(=O)OC3CCC3)cc(Nc3cc4c(cn3)n(C)c(=O)n4C3CCCC3)c2)cn1 [Example 60, Cyclobutyl (3-((1-cyclopentyl-3-methyl-2-oxo-2,3-dihydro-1H-imidazo[4,5-c]pyridin-6-yl)amino)-5-(1-methyl-1H-pyrazol-4-yl)phenyl)carbamate]",0.01 to 0.1,> 1,> 1,0.01 to 0.1
"[2H]C([2H])([2H])n1c(=O)n([C@H]2CC[C@@](C)(NC(=O)C3CC3)CC2)c2cc(Nc3ccc4nn(C)c(-c5cnn(C(F)(F)F)c5)c4n3)ncc21 (single isomer, unassigned) [Example 91, N-((1s,4s)-1-Methyl-4-(3-(methyl-d3)-6-((2-methyl-3-(1-(trifluoromethyl)-1H-pyrazol-4-yl)-2H-pyrazolo[4,3-b]pyridin-5-yl)amino)-2-oxo-2,3-dihydro-1H-imidazo[4,5-c]pyridin-1-yl)cyclohexyl)cyclopropanecarboxamide]",≤ 0.01,> 1,0.01 to 0.1,≤ 0.01
"Cn1cc(-c2cc(NC(=O)OC3CCC3)cc(Nc3cc4c(cn3)n(C)c(=O)n4[C@@H]3CC[C@@H](NC(=O)OC4CCC4)C3)c2)cn1 [Example 45, Cyclobutyl ((1R,3R)-3-(6-((3-((cyclobutoxycarbonyl)amino)-5-(1-methyl-1H-pyrazol-4-yl)phenyl)amino)-3-methyl-2-oxo-2,3-dihydro-1H-imidazo[4,5-c]pyridin-1-yl)cyclopentyl)carbamate]",0.01 to 0.1,> 1,> 1,0.01 to 0.1
"[2H]C([2H])([2H])n1c(=O)n([C@@H]2CC[C@@H](NC(=O)OC)C2)c2cc(Nc3cc(C(C)(C)O)cc(-c4ncc(Cl)s4)n3)ncc21 [Example 93, Methyl ((1R,3R)-3-(6-((6-(5-chlorothiazol-2-yl)-4-(2-hydroxypropan-2-yl)pyridin-2-yl)amino)-3-(methyl-d3)-2-oxo-2,3-dihydro-1H-imidazo[4,5-c]pyridin-1-yl)cyclopentyl)carbamate]",≤ 0.01,> 1,> 1,≤ 0.01
